Calls of active or inactive are those of the source.
Legend:
[1] = molecular target: T1, Long-chain-fatty-acid--AMP ligase FadD28 (Mycobacterium tuberculosis, UniProt P9WQ59); experiment: Fluorescence polarization aasay to screen for inhibitors that compete for the binding of FadD28 to a bisubstrate Measured in Biochemical System Using Plate Reader - 2147-01_Inhibitor_Dose_CherryPick_Activity.; type: functional, Mycobacterium tuberculosis H37Rv
T1 sequence (P9WQ59 whole entry): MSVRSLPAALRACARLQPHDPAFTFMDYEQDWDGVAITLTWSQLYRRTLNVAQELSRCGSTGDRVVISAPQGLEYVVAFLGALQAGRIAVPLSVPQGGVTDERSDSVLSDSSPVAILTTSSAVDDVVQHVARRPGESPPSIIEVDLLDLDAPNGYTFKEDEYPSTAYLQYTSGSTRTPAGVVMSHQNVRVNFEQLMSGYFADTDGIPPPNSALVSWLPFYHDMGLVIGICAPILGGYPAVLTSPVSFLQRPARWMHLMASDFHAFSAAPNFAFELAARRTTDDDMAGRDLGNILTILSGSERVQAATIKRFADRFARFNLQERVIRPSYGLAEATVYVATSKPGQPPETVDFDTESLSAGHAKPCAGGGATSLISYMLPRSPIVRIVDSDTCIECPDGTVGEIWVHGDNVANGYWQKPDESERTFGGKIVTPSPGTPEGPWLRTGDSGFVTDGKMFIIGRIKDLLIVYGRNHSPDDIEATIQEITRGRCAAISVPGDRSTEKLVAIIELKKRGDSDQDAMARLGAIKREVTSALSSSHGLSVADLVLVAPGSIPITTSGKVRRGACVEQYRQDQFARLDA

[2] = HepG2 cell cytotoxicity, dose response, cytotoxicity control, ATP luminescence, cherry-pick, activator set 2 (AID 1053143); type: functional, cell-based
[3] = T. cruzi growth inhibition in host cells, dose response, cell-based, plate reader, dry powder, set 2 (AID 652275); type: functional
[4] = THP-1 cell cytotoxicity, dose response, cytotoxicity control for Vif-APOBEC3G degradation inhibitor project, THP-1 cells (AID 1117359); type: functional; settings: Human immunodeficiency virus 1, THP-1
[5] = molecular target: Paired box protein Pax-8 (Homo sapiens, UniProt Q06710); experiment: inhibitors of PAX8-driven TPO luciferase reporter, dose response, RMG-I cells, cherry-pick (AID 687027); type: functional, cell-based;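 further: luciferase reporter driven by Pax8 target thyroperoxidase promoter measured by SteadyGlo luminescence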
[6] = NIH:OVCAR-3 ovarian cancer cell cytotoxicity, dose response, PAX8 inhibitor project, plate reader, dry powder samples (AID 743044); type: functional, cell-based
[7] = cytotoxicity in OVCAR8 ovarian cancer cells, dose response, PAX8 project, cell-based, plate reader, dry powder samples (AID 743197); type: functional; settings: OVCAR-8
[8] = P. falciparum 3D7-ScDHODH growth inhibitors, dose response, SYBR Green, dry powder samples (AID 1159570); type: functional, cell-based;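 further: parasite growth measured after 72 hours of compound exposure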
[9] = HepG2 cell cytotoxicity, dose response, cytotoxicity control, plate reader, dry powder samples (AID 1159569); type: functional, cell-based;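 further: inhibitor potency with signal falling toward the positive control level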
[10] = P. falciparum Dd2 growth inhibitors, dose response, SYBR Green, cherry-picked samples (AID 1159567); type: functional, cell-based
[11] = P. falciparum Dd2 growth inhibitors, dose response, SYBR Green, dry powder samples (AID 1159566); type: functional, cell-based;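 further: potency for growth inhibition with lower SYBR green DNA signal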
[12] = P. falciparum ATP4 D1247Y mutant growth inhibitors, dose response, NITD609-resistant line, SYBR Green, dry powder (AID 1159571); type: functional, cell-based;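 further: parasites synchronized at ring stage by sorbitol before testing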
[13] = inhibitors of intracellular T. cruzi replication, confirmation, NIH3T3 host cells, beta-gal luminescence (AID 2044); type: functional, cell-based;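 further: intracellular parasites grown in NIH/3T3 mouse fibroblasts as host cells; luminescent beta-galactosidase reporter signal from transgenic T. cruzi replicating inside host cells; inhibitors lower the luminescence signal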
[14] = growth suppression of PTEN-null colon cells, dose response, cell-based, HCT116 PTEN knockout (AID 1047); type: functional;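 further: HCT116 colon tumor cells with PTEN knocked out; cells exposed to compound for 60 hours before readout; potency for loss of cell viability measured by luminescence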
[15] = cytotoxicity toward NIH3T3 fibroblasts, dose response, counter-screen, cell-based, ATP luminescence, mouse fibroblasts (AID 2010); type: functional;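 further: cells exposed to compound for about 90 hours before reading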
[16] = growth suppression of beta-catenin-knockout colon cells, dose response, cell-based, HCT116, human colon tumor (AID 1045); type: functional;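 further: HCT116 colon tumor cells with beta catenin knocked out; cells exposed to compound for 60 hours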
[17] = molecular target: Cytochrome P450 2C19 (Homo sapiens, UniProt P33261); experiment: Cytochrome panel assay with activity outcomes. Panel member name: p450-cyp2c19 Compounds with AC50 equal or less than 10 uM are considered active; type: functional; settings: read-out: AC50
[18] = test system: INS1; experiment: beta cell apoptosis inhibitors, cytokine rescue, dose response, luminescence, retest (AID 449756); type: functional, cell-based; settings: Rattus norvegicus;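 further: cell death triggered by IL-1 beta plus TNF-alpha plus IFN-gamma mixture; protective hits raise ATP signal compared with cytokine alone wells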
[19] = molecular target: T2, Heat shock factor protein 1 (Mus musculus, UniProt P38532); experiment: inhibition of MG132-induced HSE-luciferase signal, confirmation, cell-based, NIH3T3, luminescence, dose retest (AID 2382); type: functional;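 further: NIH3T3 fibroblasts with HSF1-driven luciferase reporter stressed by proteasome inhibitor MG132; luminescence from HSF1-driven luciferase expression after 8 hours of MG132 stress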
T2 sequence (P38532 whole entry): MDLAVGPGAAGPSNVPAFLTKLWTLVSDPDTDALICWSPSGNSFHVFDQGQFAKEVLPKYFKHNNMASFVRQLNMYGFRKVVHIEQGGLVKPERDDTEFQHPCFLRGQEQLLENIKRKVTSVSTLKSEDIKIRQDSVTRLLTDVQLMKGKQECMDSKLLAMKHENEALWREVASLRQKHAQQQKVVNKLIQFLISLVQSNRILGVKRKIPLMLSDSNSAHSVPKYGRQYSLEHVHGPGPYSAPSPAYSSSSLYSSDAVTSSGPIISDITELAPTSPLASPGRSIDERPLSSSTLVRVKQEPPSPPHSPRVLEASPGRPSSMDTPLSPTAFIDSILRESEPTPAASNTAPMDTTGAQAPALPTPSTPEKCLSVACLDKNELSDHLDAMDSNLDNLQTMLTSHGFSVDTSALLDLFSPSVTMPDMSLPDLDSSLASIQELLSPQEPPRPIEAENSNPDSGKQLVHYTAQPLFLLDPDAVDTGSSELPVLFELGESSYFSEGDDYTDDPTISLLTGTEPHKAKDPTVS

[20] = P. falciparum late gametocyte killing, dose response, luminescence (AID 1117278); type: functional, cell-based;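 further: gametocytes exposed to compound for 24 hours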
[21] = Jurkat T cell cytotoxicity, dose response, cytotoxicity control for P. falciparum gametocyte viability project, luminescence (AID 1117277); type: functional, cell-based;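 further: potency reflects loss of cellular ATP meaning fewer viable cells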

Chain of Paired box protein Pax-8 (Q06710 whole entry): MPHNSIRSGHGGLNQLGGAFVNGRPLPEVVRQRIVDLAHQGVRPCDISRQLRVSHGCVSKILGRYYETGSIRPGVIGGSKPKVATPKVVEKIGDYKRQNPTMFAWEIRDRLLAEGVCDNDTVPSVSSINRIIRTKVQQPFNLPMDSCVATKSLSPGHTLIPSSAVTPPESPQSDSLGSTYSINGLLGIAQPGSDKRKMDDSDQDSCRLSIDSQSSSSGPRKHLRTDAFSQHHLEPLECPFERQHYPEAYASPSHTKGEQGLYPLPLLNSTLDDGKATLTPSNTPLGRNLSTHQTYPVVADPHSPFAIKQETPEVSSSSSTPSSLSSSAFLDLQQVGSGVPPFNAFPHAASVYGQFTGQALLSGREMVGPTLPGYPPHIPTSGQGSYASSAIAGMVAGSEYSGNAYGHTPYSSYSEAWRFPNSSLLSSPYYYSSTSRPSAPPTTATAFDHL
Chain of Cytochrome P450 2C19 (P33261 whole entry): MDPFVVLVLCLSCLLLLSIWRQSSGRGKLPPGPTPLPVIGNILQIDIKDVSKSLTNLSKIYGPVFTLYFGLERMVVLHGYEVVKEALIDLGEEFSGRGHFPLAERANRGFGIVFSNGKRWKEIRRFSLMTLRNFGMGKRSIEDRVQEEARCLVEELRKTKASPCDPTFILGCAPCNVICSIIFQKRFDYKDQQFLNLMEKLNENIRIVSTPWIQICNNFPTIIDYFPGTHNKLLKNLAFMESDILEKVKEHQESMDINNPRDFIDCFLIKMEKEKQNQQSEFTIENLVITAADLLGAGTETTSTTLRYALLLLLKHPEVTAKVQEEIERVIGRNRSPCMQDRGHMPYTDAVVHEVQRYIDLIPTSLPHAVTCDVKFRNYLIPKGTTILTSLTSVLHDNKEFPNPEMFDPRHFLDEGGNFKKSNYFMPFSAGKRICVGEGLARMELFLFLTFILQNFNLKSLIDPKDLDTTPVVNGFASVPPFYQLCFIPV

In the case of COCCn1c(C)cc(/C=N/NC(=O)c2cc3ccccc3cc2O)c1C, the AC50 [1] is reported as 17.4 µM (active).

With Cn1/c(=N\C(=O)c2ccco2)sc2cccc(F)c21 the AC50 [2] was 25.3 µM (active).

For CC(C)N1CC2(CN(Cc3ccc(F)cc3)C2)Oc2c(NC(=O)c3ccncc3)cccc2C1=O, the AC50 [3] was 0.876 µM (active).

In the case of O=C1CC2=CC=CC(=O)C(=O)C2=C(O)O1, the CC50 [4] is reported as > 40 µM (active).

In the case of C[C@@H]1CN([C@H](C)CO)C(=O)c2cc(NC(=O)Nc3ccc(C(F)(F)F)cc3)ccc2O[C@@H](C)CCCCO[C@@H]1CN(C)C(=O)c1ccccc1, the AC50 [5] is reported as 5.42 µM (active), the AC50 [6] is reported as 7.17 µM (active) and the AC50 [7] is reported as > 70 µM (inactive).

With CCCCCCSC1=C(C#N)C(=O)NC2(CCCCC2)S1 the AC50 [1] was > 100 µM (inactive).

In the case of C[C@H](CO)N1C[C@H](C)[C@@H](CN(C)C(=O)Nc2ccc3c(c2)OCO3)Oc2ccc(NC(=O)Nc3ccc(C(F)(F)F)cc3)cc2CC1=O, the AC50 [8] is reported as 0.406 µM (active), the AC50 [9] is reported as > 100 µM (inactive) and the AC50 [10] is reported as 0.748 µM (active). For the same compound, the AC50 [11] was 0.276 µM (active) and the AC50 [12] was 0.238 µM (active).

In the case of O=C(/C(=C/c1ccc(Cl)cc1)c1nc2ccccc2[nH]1)c1ccccc1, the EC50 [13] is reported as 0.824 µM (active), the EC50 [14] is reported as 3.64 µM (active) and the EC50 [15] is reported as > 60 µM (not active). For the same compound, the EC50 [16] was 3.11 µM (active), the AC50 [17] was 1.58 µM (inconclusive) and the AC50 [18] was 2.98 µM (active). For the same compound, the AC50 [2] was 7.94 µM (active).

For COc1ccc(C#Cc2ccc3c(c2)[C@H]2[C@H](CCN2Cc2nccs2)[C@H](CO)N3)cc1, the AC50 [8] was 2.95 µM (active), the AC50 [9] was 59.9 µM (active) and the AC50 [10] was 2.09 µM (active). The AC50 [11] was 1.76 µM (active) and the AC50 [12] was 1.87 µM (active).

For COc1cccc(-c2ncc3ccccc3c2CO)c1, the AC50 [1] was 38 µM (active).

With COc1ccc(OC)c(C(=O)c2ccc(C(=O)O)cc2)c1 the EC50 [19] was > 195 µM (not active), the IC50 [20] was > 109 µM (inactive) and the IC50 [21] was > 83.3 µM (inactive).

— ChEMBL document CHEMBL1201862, “PubChem BioAssay data set” (2004)
